Here are results for one compound from patent US12427195B1, “Methods of neoantigen identification” (La Jolla Institute for Immunology, priority 2019, dated 2025).

SMILES strings stand for the structures.

In assay [1] the test system is patient-derived cancer line expressing the HPV E6 protein. Briefly: Dynamic monitoring of killing of patient-derived cancer line. The format is cell-based, human. An excerpt:
FIG. 16A depicts dynamic monitoring of patient-derived cancer line to assess the capacity of the TCR to specifically kill tumor lines expressing the HPV E6 protein at 10:1 effector to target ratio. […] To assess non-specific (alloreactivity) background killing by the CD8 T cells, the growth of CD8 T cells that were stimulated and expanded but not subjected to CRISPR or LV editing are represented by Curve 3.

Assay [2] relates to E6+HLA-A*02:01+ tumor line (Caski). Briefly: Dynamic monitoring of killing of Caski tumor line. The format is cell-based. As to conditions: Caski cells. An excerpt:
FIG. 16B depicts dynamic monitoring of E6^+HLA-A*02:01^+tumor line (Caski) to assess the capacity of the engineered TCR to specifically kill tumor lines expressing the HPV E6 protein at 10:1 effector to target ratio. […] To assess non-specific (alloreactivity) background killing by the CD8 T cells, the growth of CD8 T cells that were stimulated and expanded but NOT subjected to CRISPR or LV editing are represented by Curve 3.

`N.N.[Cl][Pt][Cl]` [cisplatin]: the “time to kill tumor line” value in assay [1] and in assay [2] was at most 48 h in each case.
